Measurements taken from US8546401B2, “5,6-disubstituted oxindole-derivatives and use thereof for treating vasopressin-dependent diseases” (AbbVie Deutschland GmbH & Co. KG, priority 2007, dated 2013).
pKi: −log10 of the molar value.

Tests used:
[1] = target: T1, human vasopressin V1a receptor (Homo sapiens, UniProt P37288); test: Vasopressin V1a receptor binding assay; conditions: selectivity quotient, human receptors
T1 construct: expressed in transfected cells; host or cells: CHO-K1 (cell line hV1a_5_CHO), membrane preparation
T1 sequence (P37288 whole entry): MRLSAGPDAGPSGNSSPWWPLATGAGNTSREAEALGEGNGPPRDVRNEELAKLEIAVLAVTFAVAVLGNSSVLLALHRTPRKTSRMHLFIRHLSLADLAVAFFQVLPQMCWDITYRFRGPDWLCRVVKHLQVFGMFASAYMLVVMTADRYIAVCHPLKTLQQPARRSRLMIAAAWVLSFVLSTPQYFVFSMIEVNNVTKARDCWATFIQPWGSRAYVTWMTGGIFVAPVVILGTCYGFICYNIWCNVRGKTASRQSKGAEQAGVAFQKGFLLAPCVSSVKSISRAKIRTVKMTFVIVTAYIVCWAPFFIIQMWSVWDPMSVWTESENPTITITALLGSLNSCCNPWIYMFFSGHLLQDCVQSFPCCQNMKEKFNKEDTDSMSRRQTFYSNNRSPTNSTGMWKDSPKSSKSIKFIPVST
Outline: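 Membranes from CHO-K1 cells stably expressing the receptor (hV1a_5_CHO; 20 μg/ml protein) were incubated 60 min at room temperature with 0.04 nM ^125I-AVP and increasing test compound in 50 mM Tris, 10 mM MgCl2, 0.1% BSA, pH 7.4. Nonspecific binding was defined with 1 μM AVP and read by filtration and scintillation. Ki came from nonlinear regression using Kd 1.33 nM.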

[2] = target: T2, human vasopressin V1b receptor (Homo sapiens, UniProt P47901); test: Vasopressin V1b receptor binding assay; conditions: CHO-K1 membranes, 3H-AVP displacement
T2 construct: expressed in transfected cells; host or cells: CHO-K1 (cell line hV1b_3H2_CHO), membrane preparation
T2 sequence (P47901 1-424): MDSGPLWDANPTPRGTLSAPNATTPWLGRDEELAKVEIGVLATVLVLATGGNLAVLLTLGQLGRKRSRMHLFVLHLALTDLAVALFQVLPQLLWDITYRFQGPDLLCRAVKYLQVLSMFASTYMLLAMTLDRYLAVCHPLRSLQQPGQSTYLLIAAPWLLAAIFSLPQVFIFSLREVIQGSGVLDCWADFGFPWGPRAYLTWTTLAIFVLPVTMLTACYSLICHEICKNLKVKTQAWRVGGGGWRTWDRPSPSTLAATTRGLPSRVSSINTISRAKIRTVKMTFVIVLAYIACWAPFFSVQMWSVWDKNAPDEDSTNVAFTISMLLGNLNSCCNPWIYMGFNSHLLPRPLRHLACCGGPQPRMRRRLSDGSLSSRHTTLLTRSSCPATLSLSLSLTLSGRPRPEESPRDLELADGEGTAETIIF
Outline: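 Membranes (50 μg/ml protein) from CHO-K1 cells stably expressing human V1b were incubated with 1.5 nM ^3H-AVP in 50 mM Tris, 10 mM MgCl2, 0.1% BSA, pH 7.4, for 60 min at room temperature, 2% DMSO final. Bound ligand measured after filtration; Ki derived by nonlinear regression using Kd 0.4 nM.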

[3] = target: T3, human oxytocin receptors (Homo sapiens, UniProt P30559); test: Oxytocin receptor binding assay; conditions: selectivity quotient
T3 construct: expressed in transfected cells; host or cells: HEK-293, transient expression; lysed and homogenized cells
T3 sequence (P30559 1-389): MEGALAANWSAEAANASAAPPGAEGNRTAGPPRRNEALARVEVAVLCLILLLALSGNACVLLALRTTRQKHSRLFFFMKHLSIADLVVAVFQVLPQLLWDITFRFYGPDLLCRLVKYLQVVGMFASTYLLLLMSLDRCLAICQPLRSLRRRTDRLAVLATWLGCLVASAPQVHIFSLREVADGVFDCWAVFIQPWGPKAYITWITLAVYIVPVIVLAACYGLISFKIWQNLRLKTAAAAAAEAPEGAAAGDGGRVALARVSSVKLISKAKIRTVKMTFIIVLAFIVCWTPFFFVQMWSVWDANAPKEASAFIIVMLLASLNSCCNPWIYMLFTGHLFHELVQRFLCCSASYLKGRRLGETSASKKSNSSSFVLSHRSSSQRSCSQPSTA
Outline: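 Membranes from HEK-293 cells transiently expressing human oxytocin receptor, incubated with 3-4 nM ^3H-oxytocin in 50 mM Tris, 10 mM MgCl2, 0.1% BSA, pH 7.4; nonspecific binding with 10^−6 M oxytocin. Filtration and scintillation counting; Ki by nonlinear regression using Kd 7.6 nM.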

Row | Ki(h − V1a)/Ki(h − V1b)* [1] | pKi [2] | Ki(h − OT)/Ki(h − V1b)* [3] | Structure (SMILES)
1 | +++ (>75) | 8.00 to 9.00 | +++ (>75) | CCOc1ccccc1C1(NC(=O)N2CCN(C3CCN(CC)CC3)CC2)C(=O)N(S(=O)(=O)c2ccc(OC)cc2)c2cc(F)c(C#N)cc21 (stereo not drawn) [Example 12, 4-(1-Ethylpiperidin-4-yl)piperazine-1-[5-cyano-3-(2-ethoxyphenyl)-6-fluoro-1-(4-methoxyphenylsulfonyl)-2-oxo-2,3-dihydro-1H-indol-3-yl]carboxamide]
2 | +++ (>75) | > 9.00 | +++ (>75) | CCOc1ncccc1C1(NC(=O)N2CCN(C3CCN(CC)CC3)CC2)C(=O)N(S(=O)(=O)c2ccc(OC)cc2OC)c2cc(F)c(C#N)cc21 (stereo not drawn) [Example 2, 4-(1-Ethylpiperidin-4-yl)piperazine-1-[5-cyano-1-(2,4-dimethoxyphenylsulfonyl)-3-(2-ethoxypyridin-3-yl)-6-fluoro-2-oxo-2,3-dihydro-1H-indol-3-yl]carboxamide]
3 | ++ (25-75) | > 9.00 | +++ (>75) | CCOc1ncccc1C1(NC(=O)N2CCN(C3CCN(CC)CC3)CC2)C(=O)N(S(=O)(=O)c2ccc(OC)cc2OC)c2cc(F)c(Cl)cc21 (stereo not drawn) [Example 21, 4-(1-Ethylpiperidin-4-yl)piperazine-1-[5-chloro-1-(2,4-dimethoxyphenylsulfonyl)-3-(2-ethoxypyridin-3-yl)-6-fluoro-2-oxo-2,3-dihydro-1H-indol-3-yl]carboxamide]
4 | ++ (25-75) | > 9.00 | +++ (>75) | CCOc1ncccc1C1(OC(=O)N2CCN(C3CCN(C)CC3)CC2)C(=O)N(S(=O)(=O)c2ccc(OC)cc2)c2cc(F)c(C#N)cc21 (stereo not drawn) [Example 39, 5-Cyano-3-(2-ethoxypyridin-3-yl)-6-fluoro-1-(4-methoxyphenylsulfonyl)-2-oxo-2,3-dihydro-1H-indol-3-yl 4-(1-methylpiperidin-4-yl)piperazine-1-carboxylate]
5 | ++ (25-75) | 8.00 to 9.00 | + (10-<25) | CCOc1ncccc1C1(OC(=O)N2CCN(C3CCN(C)CC3)CC2)C(=O)N(S(=O)(=O)c2ccc(OC)cc2)c2cc(F)c(F)cc21 (stereo not drawn) [Example 52, 3-(2-Ethoxypyridin-3-yl)-5,6-difluoro-1-(4-methoxyphenylsulfonyl)-2-oxo-2,3-dihydro-1H-indol-3-yl 4-(1-methylpiperidin-4-yl)piperazine-1-carboxylate]
6 | ++ (25-75) | 8.00 to 9.00 | + (10-<25) | CCOc1ncccc1C1(OC(=O)N2CCN(C3CCN(C)CC3)CC2)C(=O)N(S(=O)(=O)c2ccc(OC)cc2OC)c2cc(Cl)c(F)cc21 (stereo not drawn) [Example 46, 6-Chloro-1-(2,4-dimethoxyphenylsulfonyl)-3-(2-ethoxypyridin-3-yl)-5-fluoro-2-oxo-2,3-dihydro-1H-indol-3-yl 4-(1-methylpiperidin-4-yl)piperazine-1-carboxylate]
7 | + (10-<25) | 8.00 to 9.00 | +++ (>75) | CCOc1ncccc1C1(OC(=O)N2CCN(C3CCN(C)CC3)CC2)C(=O)N(S(=O)(=O)c2ccccc2)c2cc(F)c(C#N)cc21 (stereo not drawn) [Example 40, 1-Phenylsulfonyl-5-cyano-3-(2-ethoxypyridin-3-yl)-6-fluoro-2-oxo-2,3-dihydro-1H-indol-3-yl 4-(1-methylpiperidin-4-yl)piperazine-1-carboxylate]
8 | ++ (25-75) | > 9.00 | +++ (>75) | CCOc1ncccc1C1(NC(=O)N2CCC(N3CCN(C)CC3)CC2)C(=O)N(S(=O)(=O)c2ccc(OC)cc2OC)c2cc(F)c(C#N)cc21 (stereo not drawn) [Example 3, 4-(4-Methylpiperazin-1-yl)piperidine-1-[5-cyano-1-(2,4-dimethoxyphenylsulfonyl)-3-(2-ethoxypyridin-3-yl)-6-fluoro-2-oxo-2,3-dihydro-1H-indol-3-yl]carboxamide]
9 | ++ (25-75) | > 9.00 | ++ (25-75) | CCOc1ncccc1C1(NC(=O)N2CCN(C3CCN(C)CC3)CC2)C(=O)N(S(=O)(=O)c2ccc(OC)cc2OC)c2cc(F)c(Cl)cc21 (stereo not drawn) [Example 19, 4-(1-Methylpiperidin-4-yl)piperazine-1-[5-chloro-1-(2,4-dimethoxyphenylsulfonyl)-3-(2-ethoxypyridin-3-yl)-6-fluoro-2-oxo-2,3-dihydro-1H-indol-3-yl]carboxamide]

Row | Structure (SMILES) | Ki(h − V1a)/Ki(h − V1b)* [1] | pKi [2] | Ki(h − OT)/Ki(h − V1b)* [3]
10 | CCOc1ccccc1C1(NC(=O)N2CCC(N3CCN(C)CC3)CC2)C(=O)N(S(=O)(=O)c2ccc(OC)cc2)c2cc(F)c(C#N)cc21 (stereo not drawn) [Example 15, 4-(4-Methylpiperazin-1-yl)piperidine-1-[5-cyano-3-(2-ethoxyphenyl)-6-fluoro-1-(4-methoxyphenylsulfonyl)-2-oxo-2,3-dihydro-1H-indol-3-yl]carboxamide] | + (10-<25) | 8.00 to 9.00 | +++ (>75)
11 | CCOc1ccccc1C1(NC(=O)N2CCC(N3CCN(CC)CC3)CC2)C(=O)N(S(=O)(=O)c2ccccc2)c2cc(F)c(C#N)cc21 (stereo not drawn) [Example 18, 4-(4-Ethylpiperazin-1-yl)piperidine-1-[1-phenylsulfonyl-5-cyano-3-(2-ethoxyphenyl)-6-fluoro-2-oxo-2,3-dihydro-1H-indol-3-yl]carboxamide] | + (10-<25) | 8.00 to 9.00 | +++ (>75)
12 | CCOc1ncccc1C1(NC(=O)N2CCC(N3CCN(C)CC3)CC2)C(=O)N(S(=O)(=O)c2ccc(OC)cc2OC)c2cc(F)c(F)cc21 (stereo not drawn) [Example 35, 4-(4-Methylpiperazin-1-yl)piperidine-1-[1-(2,4-dimethoxyphenylsulfonyl)-3-(2-ethoxy-pyridin-3-yl)-5,6-difluoro-2-oxo-2,3-dihydro-1H-indol-3-yl]carboxamide] | + (10-<25) | 8.00 to 9.00 | + (10-<25)
